Test results reported in patent publication US11643385B2, “Polymorphic forms of RAD1901-2HCl” (RADIUS PHARMACEUTICALS, INC., priority 2018, dated 2023).
“Also recorded” adds a separate entry of the source.

Columns and labels:
[1] = Gravimetric Vapour Sorption (GVS) with XRPD post-GVS; type: physicochemical; conditions: for GVS total mass change between 0 and 90% RH: 0-90% RH (Table 17); for XRPD post GVS (uptake 0-90% RH): after GVS 0-90% RH; for Form change at high RH (>90%) in GVS experiments: above 90% RH
Experimental: Sorption isotherms were obtained using a SMS DVS Intrinsic moisture sorption analyzer, controlled by DVS Intrinsic Control software v1.0.1.2 (or v 1.0.1.3). The sample temperature was maintained at 25° C. by the instrument controls. The humidity was controlled by mixing streams of dry and wet nitrogen, with a total flow rate of 200 ml/min. The relative humidity was measured by a calibrated Rotronic probe (dynamic range of 1.0-100% RH), located near the sample. The weight change, (mass relaxation) of the sample as a function of % RH was constantly monitored by the microbalance (accuracy ±0.005 mg).
A sample (e.g., 20 mg) was placed in a tared mesh stainless steel basket under ambient conditions. The sample was loaded and unloaded at 40% RH and 25° C. (typical room conditions). A moisture sorption isotherm was performed as outlined below (2 scans giving 1 complete cycle). Standard isotherms were performed at 25° C. at 10% RH intervals over a 0-90% RH range. Data analysis was carried out using Microsoft Excel using DVS Analysis Suite v6.2 (or 6.1 or 6.0).
In a cycle of 2 scans, the first scan was performed with adsorption of 40-90% RH, followed by a second scan with desorption of 90-0% RH and adsorption of 0-40% RH, with intervals of 10% RH, at 25° C. with stability dm/dt of 0.002% ° C./min. The sorption time was 6 hr time out.
The sample was recovered after completion of the isotherm and re-analyzed by XRPD. Custom moisture sorption methods were also performed at 25° C. at fixed % RH intervals over a 0-95% RH range, with the purpose to fully understand the sorption/desorption behavior of the compound under elevated conditions.
To further explore the humidity behavior of Sample 1 (Form 1) upon exposure to high RH (>90%), custom GVS experiments were designed and carried out. Initially, the sample was treated by holding at 90 and then 95% RH for ˜12 hours to see if hydrate formation could be observed (HighRH method of Steps 1 and 2 of Table 2, FIGS. 6C-6D).
To test the stability of the hydrated state, GVS method HighRH_Desorp_3 was designed with a desorption step and subsequent adsorption (see Table 2 with steps 1-4, FIGS. 6E-6F).
Finally, to ensure complete conversion to the anhydrous and hydrated forms, a GVS experiment was designed to increase both the length of the desorption step at 0% RH, and the adsorption step at 95% RH, respectively (Table 3). Based on the weight stabilization observed in the kinetic plots for Sample 1 in HighRH and HighRH_Desorp_3 methods discussed above (FIGS. 6D and 6F), a holding time of 800 mins at 0% RH and 1600 mins at 95% RH were chosen. A double cycle was also recorded for this experiment to observe whether the sample would return to Form 1 or form a mixed anhydrous/hydrated species (see Table 3, FIGS. 6G-6H).

[2] = Storage at elevated temperature/humidity, solid form checked by XRPD; type: physicochemical; conditions: for XRPD after storage at 25° C./97% RH for 1 week (solid form) / XRPD after storage at 40° C./75% RH for 1 week (solid form): 1 week (7 days); for Form change on exposure to high RH (>90%): e.g. 7 days / prolonged exposure
Experimental: Samples 1 and 2 were characterized by XRPD at various conditions. XRPD patterns were collected for the samples at ambient condition as the samples were provided; at variable temperature (VT-XRPD); at variable humidity (VH-XRPD); after the samples were exposed to 40° C./75% RH for 1 week and 25° C./97% RH for 1 week, respectively; and after a GVS measurement wherein the samples were exposed to 0-90% RH. Samples 1 and 2 were also characterized by ^1H NMR, TGA, DSC, KF, IC, GVS (exposed to 0-90% RH), PLM, SEM, and HPLC (Table 5). […]

[3] = as above; type: physicochemical
estrogen receptor (ER) = target: T1, estrogen receptor (ER) (Homo sapiens, UniProt P03372); conditions: cited from earlier work
T1 sequence (P03372 1-595): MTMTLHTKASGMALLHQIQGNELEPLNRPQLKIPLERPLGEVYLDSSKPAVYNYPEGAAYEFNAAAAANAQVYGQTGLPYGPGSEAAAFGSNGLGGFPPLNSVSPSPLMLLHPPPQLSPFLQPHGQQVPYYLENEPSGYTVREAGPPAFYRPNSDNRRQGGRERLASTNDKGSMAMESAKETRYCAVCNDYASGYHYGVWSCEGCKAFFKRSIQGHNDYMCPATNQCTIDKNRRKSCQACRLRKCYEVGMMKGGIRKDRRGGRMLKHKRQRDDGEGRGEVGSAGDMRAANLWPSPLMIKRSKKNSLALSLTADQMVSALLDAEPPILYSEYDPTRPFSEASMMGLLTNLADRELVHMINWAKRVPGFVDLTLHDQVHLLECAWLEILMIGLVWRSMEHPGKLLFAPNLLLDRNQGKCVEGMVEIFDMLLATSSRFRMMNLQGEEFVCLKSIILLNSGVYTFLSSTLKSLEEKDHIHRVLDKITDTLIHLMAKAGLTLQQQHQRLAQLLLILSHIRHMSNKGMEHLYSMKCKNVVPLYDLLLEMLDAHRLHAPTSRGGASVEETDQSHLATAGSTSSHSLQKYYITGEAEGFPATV

[4] = Solubility assessment and polymorph screen on Sample 1 (Form 1) of RAD1901-2HCl in 24 solvent systems; type: physicochemical
Experimental: Solubility assessment was carried out on the Sample 1 of RAD1901-2HCl (majorly Form 1 shown by XRPD) in 24 solvent systems in HPLC vials (sample IDs: A1 to A24). RAD1901-2HCl (25 mg) was treated with increasing volumes of solvent until the material fully dissolved or until a maximum of 60 vol had been used (Table 13).
After each addition of solvent, the system was stirred for 5 to 10 minutes at 25° C., then shaken at 50° C. for 5 to 10 minutes, and observations made. Samples were allowed to stand at room temperature for 5 min before the addition of a new aliquot of solvent. After the assessment was completed, the suspensions obtained were matured (maturation) and the clear solutions were cooled (cooling) and slowly evaporated (evaporation) as described below. All solids recovered from maturation, cooling and evaporation experiments were analyzed by high resolution XRPD.
The suspensions obtained during the solubility assessment were matured by shaken in a maturation chamber between 50° C. and RT (8 hr per cycle) for up to 5 days. Then the mixture was allowed to stand at room temperature for 10 minutes. The resulting solids were filtered and air dried and analyzed by XRPD. The clear solutions obtained during maturation were evaporated in ambient conditions and the resulting residues were analyzed by XRPD.
The clear solutions obtained during the course of the solubility assessment were cooled on a Polar Bear device from 50° C. to 5° C. at 0.1° C./min. Solids obtained upon cooling were recovered from the vials, air dried and analyzed by XRPD. If no solid was obtained, the solutions were evaporated slowly through a needle inserted into the septum cap of the vial until a solid appeared at ambient conditions and the resulting solids were filtered, air dried and analyzed by XRPD.

[5] = Variable humidity XRPD (VH-XRPD); type: physicochemical
Experimental: Samples run under non-ambient conditions were prepared by gently packing into a cavity, cut into a silicon wafer to obtain a flat surface and mounted onto a humidity stage with an Ansyco controller and humidity sensor positioned directly next to the sample holder. The data were collected at 298.15 K with water temperature of 35.0° C., in an angular range of 3 to 31° 2θ, with a step size of 0.025° 2θ, a collection time of 2.0 sec/step, and a collection time at each % RH was 41 min 28 sec.
X-Ray Powder Diffraction (XRPD) patterns were collected at variable humidity values from 0 to 95% RH, based upon the humidity behavior of each compound observed during GVS experiments (described herein). For each Variable Humidity X-Ray Powder Diffraction (VH-XRPD) experiment performed, the % RH values selected are provided alongside the relevant experimental result. Full tables of detailing the % RH value at each collection point and the associated delay time at each value are provided in Tables 10-12.
To fully characterize the polymorphic behavior of Samples 1 and 2 at variable humidity, and to collect reference XRPD patterns for the ‘pure’ anhydrous Form 1 and Form 2 material, and ‘pure’ hydrated Form 3 material, Variable Humidity (VH) XRPD experiments were conducted on Samples 1 and 2. Initially, VH-XRPD experiments were conducted using Sample 1, and XRPD diffractograms were collected at selected humidity values, in line with those collected during GVS experiments (see FIGS. 6E-6F). XRPD diffractograms were collected initially at ambient RH, then collected over 24 hours at ˜95% RH and finally collected during desorption steps to 0% RH and over 10 hours at 0% RH (see FIG. 4C).

[6] = Variable temperature XRPD (VT-XRPD); type: physicochemical
Experimental: Samples run under non-ambient conditions were mounted on a silicon wafer with a heat-conducting compound. The sample was then heated from ambient to the appropriate temperature at 20° C./min and subsequently held isothermally for 1 minute before data collection was initiated.
Variable Temperature XRPD (VT-XRPD) experiments were therefore conducted to examine the thermal behavior of Sample 2 observed by DSC (see FIG. 9B). […] (blue) as Form 1 material (FIG. 5D).

Structure (SMILES): CCNCCc1ccc(CN(CC)c2cc(OC)ccc2[C@@H]2CCc3cc(O)ccc3C2)cc1.Cl.Cl [Form 1B]
- GVS total mass change between 0 and 90% RH ([1]; listed as Pattern B): Total change in mass of 1.4% wt. between 0 and 90% RH,
- XRPD post GVS (uptake 0-90% RH) ([1]; 25° C., listed as Pattern B): no hysteresis. XRPD post-GVS is consistent with Pattern
- XRPD after storage at 25° C./97% RH for 1 week (solid form) ([2]; listed as Pattern B): Unchanged post storage at both conditions
- XRPD after storage at 40° C./75% RH for 1 week (solid form) ([2]; listed as Pattern B): Unchanged post storage at both conditions

Structure (SMILES): CCNCCc1ccc(CN(CC)c2cc(OC)ccc2[C@@H]2CCc3cc(O)ccc3C2)cc1.Cl.Cl [Form 1]
- GVS: reversibility of uptake and loss ([1]; 0-90% RH): exhibits reversible uptake and loss,
- Hygroscopicity (GVS), in words ([1]; 0-90% RH): lower hygroscopicity; also recorded: relatively non-hygroscopic; also recorded: low hygroscopicity; also recorded: Sample is slightly hygroscopic, but
- GVS total mass change between 0 and 90% RH [1]: Total mass change of 1.7% wt.
- Form change at high RH (>90%) in GVS experiments [1]: started converting to the hydrate Form 3
- XRPD post GVS (uptake 0-90% RH) ([1]; 25° C.): unchanged XRPD pattern; also recorded: No changes; also recorded: Form 1
- XRPD after storage at 25° C./97% RH for 1 week (solid form) [2]: converted to Form 3; also recorded: conversion towards a hydrated state Form 3; also recorded: Converts to Form 3 at 25° C./
- XRPD after storage at 40° C./75% RH for 1 week (solid form) [2]: stable; also recorded: Remains as Form 1 at 40° C./
- Form change on exposure to high RH (>90%) [2]: irreversibly converted to the hydrate Form 3
- Stability of the form (heat/humidity), in words ([2]; summary of characterizations of Samples 1 and 2): stable

Structure (SMILES): CCNCCc1ccc(CN(CC)c2cc(OC)ccc2[C@@H]2CCc3cc(O)ccc3C2)cc1.Cl.Cl [Form 2]
- Hygroscopicity (GVS), in words ([1]; 0-90% RH): hygroscopic
- Form obtained on exposure to >40% RH for 7 days ([2]; >40% RH, 7 days): Form 3

Structure (SMILES): CCNCCc1ccc(CN(CC)c2cc(OC)ccc2[C@@H]2CCc3cc(O)ccc3C2)cc1.Cl.Cl [Lyophilization in water]
- XRPD post storage at 25° C./97% RH (10 days) ([3]; 25° C./97% RH): Consistent with Form 3
- XRPD post storage at 40° C./75% RH (10 days) ([3]; 40° C./75% RH): Consistent with Form 3

Structure (SMILES): CCNCCc1ccc(CN(CC)c2cc(OC)ccc2[C@@H]2CCc3cc(O)ccc3C2)cc1 [RAD1901]
- Binding selectivity for the estrogen receptor (ER), in words (estrogen receptor (ER)): good selectivity

Structure (SMILES): CCNCCc1ccc(CN(CC)c2cc(OC)ccc2[C@@H]2CCc3cc(O)ccc3C2)cc1.Cl.Cl [Sample 1]
- Solubility in alcohols, esters, and hydrocarbon solvents, in words ([4]; alcohols, esters, hydrocarbon solvents): low solubility
- Solubility in water, in words ([4]; water): highly soluble
- Solubility in water and t-butanol/water (1:1), in words ([4]; water, t-butanol/water (1:1)): high solubility
- VH-XRPD: form change over 24 hr at ~95% RH ([5]; ~95% RH, 24 hr): unable to show a direct conversion; also recorded: Form 3 over
- GVS: reversibility of uptake and loss ([1]; 0-90% RH): (reversible)
- GVS uptake 0-90% RH ([1]; 0-90% RH, 25° C.): 1.8% wt.
- GVS mass uptake when held at 95% RH for ~12 hours (HighRH method) ([1]; 95% RH, ~12 hours): 5-6 % wt.
- Form change at high RH (>90%) in GVS experiments [1]: irreversibly converted to a hydrate (Form 3)
- XRPD post GVS (uptake 0-90% RH) ([1]; 25° C.): Form 1
- XRPD post-GVS (HighRH_DoubleCycle_2 method) ([1]; double cycle, 1600 mins at 95% RH, 800 mins at 0% RH): Form 3
- XRPD post-GVS (HighRH method) ([1]; held at 90 then 95% RH for ~12 hours): mixture of states or incomplete conversion
- XRPD post-GVS (HighRH_Desorp_3 method) ([1]; single cycle to 95% RH, desorption to 0% RH, adsorption to 40% RH): mixture of Form 1 and Form 3
- XRPD after storage at 25° C./97% RH for 1 week (solid form) [2]: Form 3
- XRPD after storage at 40° C./75% RH for 1 week (solid form) [2]: Form 1
- Form change on exposure to high RH (>90%) [2]: converted to the hydrate Form 3

Structure (SMILES): CCNCCc1ccc(CN(CC)c2cc(OC)ccc2[C@@H]2CCc3cc(O)ccc3C2)cc1.Cl.Cl [Sample 2]
- VH-XRPD: form at 0% RH ([5]; 0% RH): 5E). Form 2 at 0%
- VH-XRPD: form change at >90% RH ([5]; >90% RH (92-93% RH)): conversion toward the hydrated state; also recorded: Conversion to Form 3
- Hygroscopicity (GVS), in words ([1]; 0-90% RH): hygroscopic
- XRPD post GVS (uptake 0-90% RH) ([1]; 25° C.): mixture of Form 2 and Form 3
- XRPD after storage at 25° C./97% RH for 1 week (solid form) [2]: Form 3
- XRPD after storage at 40° C./75% RH for 1 week (solid form) [2]: Form 3
- VT-XRPD: form after melt and recrystallization above 175° C. ([6]; heated above 175° C.): converted to Form 1; also recorded: recrystallized as Form 1
- VT-XRPD: form obtained on heating to 100° C. ([6]; heating to 100° C.): converted to Form 2; also recorded: Anhydrous Form 2
